Literature values as cited in patent US20050272649A1, “Conjoint administration of morphogens and ACE inhibitors in treatment of chronic renal failure” (priority 2002, published 2005).
Entries after “also recorded” stand apart in the source; their conditions may differ. Where two headings read alike, the source gives them in different places.

Tests used:
[1] = oral administration; cited from earlier work
hypertension = details: cited from earlier work; for safety / tolerability (in words): clinical studies
AT1 receptor = target: T1, AT1 receptor (Homo sapiens, UniProt P30556); details: cited from earlier work
T1 sequence (P30556 1-359): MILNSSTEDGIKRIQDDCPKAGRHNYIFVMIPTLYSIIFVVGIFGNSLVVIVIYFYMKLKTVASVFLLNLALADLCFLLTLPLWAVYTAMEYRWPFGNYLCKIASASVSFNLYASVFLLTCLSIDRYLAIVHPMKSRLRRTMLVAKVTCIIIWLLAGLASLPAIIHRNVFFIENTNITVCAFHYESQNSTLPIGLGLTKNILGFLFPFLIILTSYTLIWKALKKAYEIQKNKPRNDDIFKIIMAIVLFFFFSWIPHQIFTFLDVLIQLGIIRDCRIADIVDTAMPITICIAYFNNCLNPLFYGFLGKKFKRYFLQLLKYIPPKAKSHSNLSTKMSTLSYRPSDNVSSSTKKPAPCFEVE

[2] = comparator and dosages as stated in the sentence
[3] = olmesartan medoxomil 20 mg starting dose

| Structure (SMILES) | oral absorption / bioavailability / pharmacokinetics (in words) [1] | safety / tolerability (in words) (hypertension) | antihypertensive efficacy compared (in words) (hypertension; [2]) | other results |
| --- | --- | --- | --- | --- |
| CCOc1nc2cccc(C(=O)O)c2n1Cc1ccc(-c2ccccc2-c2nnn[nH]2)cc1 [Candesartan] | poorly absorbed after oral administration | both safe and well tolerated | Comparable reductions of diastolic blood pressure | diastolic blood pressure reduction, adjusted mean more than the 50-mg losartan dosage (hypertension; candesartan 16 mg per day): 3.7 mm Hg; affinity for the AT1 receptor relative to affinity for the AT2 receptor (AT1 receptor): more than 10,000 times |
| CCCCC1=NC2(CCCC2)C(=O)N1Cc1ccc(-c2ccccc2-c2nnn[nH]2)cc1 [Irbesartan] |  | safe and effective | as effective as enalapril and atenolol in reducing blood pressure | antihypertensive efficacy compared (in words) (hypertension; comparator and dosages as stated in the sentence, listed as irbesartan): significantly greater; affinity for the AT1 receptor relative to affinity for the AT2 receptor (AT1 receptor): more than 8,500 times |
| CCCCc1nc(Cl)c(CO)n1Cc1ccc(-c2ccccc2-c2nn[nH]n2)cc1 [Losartan] |  | well tolerated |  | antihypertensive efficacy compared (in words) (hypertension; comparator and dosages): as efficacious as enalapril and nifedipine for lowering blood pressure; also recorded: no significant difference in antihypertensive efficacy; duration of activity for a dose (hypertension; losartan): 24 h |
| CCCc1nc2c(C)cc(-c3nc4ccccc4n3C)cc2n1Cc1ccc(-c2ccccc2C(=O)O)cc1 [Telmisartan] | Nonlinear pharmacokinetics | side effect profile similar to that of placebo; also recorded: no rebound hypertension or first-dose orthostatic effect | slightly greater antihypertensive effect than enalapril |  |
| CCCCC(=O)N(Cc1ccc(-c2ccccc2-c2nnn[nH]2)cc1)[C@H](C(=O)O)C(C)C [Valsartan] |  | both safe and effective | as effective as ACE inhibitors enalapril, lisinopril and amlodipine |  |
| CCOc1nc2cccc(C(=O)OC(C)OC(=O)OC3CCCCC3)c2n1Cc1ccc(-c2ccccc2-c2nnn[nH]2)cc1 (stereo not drawn) [candesartan cilexetil] | improves bioavailability; also recorded: conversion to the active compound occurs rapidly and completely |  |  |  |
| CCCc1nc(C(C)(C)O)c(C(=O)OCc2oc(=O)oc2C)n1Cc1ccc(-c2ccccc2-c2nnn[nH]2)cc1 [olmesartan medoxomil] |  |  | superior to losartan | reduction of diastolic pressure (average) (hypertension; [3]): 12 mm Hg; reduction of systolic pressure (average) (hypertension; [3]): 15 mm Hg |
